Data taken from PMC10800708, “Efficacies and ADME properties of redox active methylene blue and phenoxazine analogues for use in new antimalarial triple drug combinations with amino-artemisinins” (Frontiers in Pharmacology, 2024).
“And” between values parts separate entries of the source, which are not always exact repeats. Equal values may be shown once. Read-outs that look alike come from different tables or passages of the source.

Key:
[1] = Kinetic solubility in PBS; assay type: physicochemical; conditions: phosphate buffer saline (PBS), aqueous buffer, kinetic from dmso stock
Description: . […] The aqueous mobile phase was water with 0.1% formic acid and the organic mobile phase was acetonitrile with 0.1% formic acid. The gradient method has a flow rate of 0.8 mL/min, with a total run time of 2.5 min starting at 5% organic and increasing to 95% at 1.4 min, holding for 40 s before returning to 5% to re-equilibrate the column. • ii. Lipophilicity. Stock solutions (10 mM) of compounds were diluted to 100 μM in 96-well deep-well plate containing 300 µL of 1-octanol and 300 µL of phosphate buffer at pH 7.4. The plate was agitated on an orbital shaker at 750 rpm for 2 h. The organic and buffer layers of each well were transferred separately to a new analysis plate. The samples were analysed with the HPLC diode array detection as described for kinetic solubility. Samples from both layers were analysed to determine LogD7.4 values. • iii. Passive permeability. A parallel artificial membrane permeation assay (PAMPA) was used to assess the passive permeability of compounds with a 96-well MultiScreen filter plate ([…] pore size, Millipore). The filter plate was precoated with 5% hexadecane in hexane. Stock solutions of compounds were diluted to 1 mM in a donor buffer (pH 6.5). Lucifer yellow was added to the apical wells of the precoated MultiScreen plate containing compound donor solution. The donor buffer solutions were spiked with each test compound (1 mM). The acceptor-buffer solution was prepared by adding 10 μL DMSO to 990 μL acceptor buffer (pH 7.4) and 250 μL were added to the basolateral (acceptor) wells. The donor plate was carefully inserted into the acceptor plate and incubated at room temperature for 4 h. After the incubation period, 50 μL of samples from the acceptor plate were transferred to a round bottom 96-well plate, together with 30 μL of donor buffer for matrix matching. Theoretical equilibrium samples for each test compound were prepared by adding 150 μL of donor solutions to 250 μL acceptor solutions and left at room temperature. These theoretical equilibrium samples represent complete transfer of the compound into the donor well. For the theoretical equilibrium samples, 80 μL were added to the analysis plate. Lastly, 160 μL of the internal standard carbamazepine (0.1 μM) was added to all acceptor and equilibrium samples. A portion of the sample containing Lucifer yellow was analyzed on a BioRad iMarkTM Microplate Absorbance Reader (BioRad, Hercules, CA, United States; […]. Samples were analysed using reverse phase Gemini NX-C18 column (5 μm, 2.1 mm × 50 mm) with a Shimadzu HPLC coupled with an AB Sciex 3200 Q TRAP MS). […]. Plasma stability. Stock solutions of compounds in DMSO (10 mM) were used to spike pooled human plasma. 90 μL of each sample was transferred in duplicate to 6 different wells of a 96-deep well plate. An aliquot of each sample was immediately quenched with ice cold acetonitrile containing the internal standard carbamazepine (0.1 µM), after which the plate was incubated in a water bath (37°C for […]). Aliquots of samples were removed at 5, 15, 40, 60 and 180 min and quenched with ice cold acetonitrile. After samples of the final time point were precipitated, the supernatant was transferred to a round bottom 96-well plate for analysis by LC-MS/MS using a reverse phase Gemini NX-C18 column (5 μm, 2.1 mm × 50 mm) with a Shimadzu HPLC coupled with an AB Sciex 3200 Q TRAP MS) operated at unit resolution in the multiple reaction monitoring (MRM) mode. The aqueous phase consisted of water with 0.1% formic acid and the organic mobile phase consisted of methanol and acetonitrile (1:1, (v/v)) with 0.1% formic acid. […]. The peak area ratios were used to calculate the amount of parent compound remaining and t1/2 in plasma, using the following equations.

[2] = In vivo PK, iv and oral, whole blood; set-up: species or system C57BL/6 mice; conditions: for Vd / clearance / half-life / Cmax / Tmax: C57BL/6, mouse; for Vd / clearance / half-life / AUC0-∞ / Oral Cmax relative to the IC50 value / BA: mice; for Cmax / Tmax: po, 5 mg/kg; for BA: oral bioavailability
Description: • i. Animals. […] Food and water were available ad libitum. Mice were acclimatised to the experimental environment for 4-5 days prior to initiating the experiments. • ii. Oral drug administration. AD01 and PhX6 were prepared in 100% Millipore […] prepared in an aqueous suspension of 0.5% HPMC (w/v) containing 0.2% Tween 80 (v/v). The weighed compounds were sonicated and vortexed to ensure all solutions were homogenous. […] The total volume per administration was 200 μL. Blood samples were collected post-dose in lithium heparin microvials via tail bleeding at predetermined intervals at 0.5, 1, 3, 5, 8, 10 and 24 h. Samples were gently vortexed and stored at -80°C until analysis. • iii. Intravenous administration. AD01 and PhX6 were prepared in 100% Millipore […] prepared in an organic vehicle consisting of 10% N,N-dimethylacetamide, 30% polyethylene glycol 400 (PEG), 50% polypropylene glycol (PPG) and 10% ethanol (1:3:5:1, v/v) for intravenous (iv) dosing at 10 mg/kg. The total volume of administration was 80 μL. Blood samples were collected post-dose in lithium heparin microvials via tail bleeding at predetermined intervals at 0.16, 0.5, 1, 3, 5, 8, 10 and 24 h. Samples were gently vortexed and stored at -80°C until analysis. • iv. Sample processing and analysis. […] The mixture was vortexed vigorously for 1 min, and 5 μL of the supernatant were injected onto the analytical column following centrifugation (5590 g for 5 min). A Shimadzu HPLC and reverse phase Gemini NX-C18 column coupled to an AB Sciex 3200 Q TRAP MS was operated at unit resolution in the multiple reaction monitoring (MRM) mode as described above. […] Data analysis. Drug concentration versus time plots for each compound were used to determine maximal drug concentration C max, time T max to reach C max, elimination half-life t 1/2 and the area under the concentration-time curve from time zero to infinity, AUC0-inf. From these values the PK parameters clearance CL, volume of distribution Vd and oral bioavailability BA were determined using the non-compartmental analysis Microsoft Excel Add-In PKSolver ([Zhang et al., 2010]).

[3] = PBS pH 2, read-out: Predicted solubility pH 2
[4] = PBS pH 6.5, read-out: Predicted solubility pH 6.5
[5] = PBS pH 7.4, read-out: Predicted solubility pH 7.4
[6] = 10 mg/kg, intravenous, whole blood
[7] = whole blood, iv, 10 mg/kg, intravenous, whole blood, read-out: t1/2 (converted)
[8] = oral gavage: AD01 4.6, PhX6 4.5, DpNEt 5 mg/kg

Question: Which results are given for `CCN(CC)c1ccc2nc3ccc(=[N+](CC)CC)cc-3sc2c1` [AD01]?
Answer: solubility at 2 h [1, 3]: > 150 µM; solubility at 2 h [1, 4]: > 150 µM; solubility at 2 h [1, 5]: > 150 µM; Vd [2, 6]: 16.2 ± 1.73 L/kg; clearance [2, 6]: 74.4 ± 6.68 mL/min/kg; half-life [2, 7]: 151 ± 4.2 min; Cmax ([2]; whole blood): 250 ± 50 nM; Tmax ([2]; whole blood): 52.8 ± 7.8 min; AUC0-∞ ([2]; intravenous, whole blood): 186 ± 15 µmol·min/L; Oral Cmax relative to the IC50 value [2]: ~10 fold; BA [2]: 15% and 15 ± 4%; AUC0-∞ [2, 8]: 101 ± 19 µmol·min/L

Question: What does the source list for `CCN(CC)c1ccc2nc3c4ccccc4/c(=N\c4ccccn4)cc-3oc2c1` [PhX6]?
Answer: solubility at 2 h [1, 3]: > 150 µM; solubility at 2 h [1, 4]: < 5 µM; solubility at 2 h [1, 5]: < 5 µM; Vd [2, 6]: 14.9 ± 2.09 L/kg; clearance [2, 6]: 21.5 ± 1.76 mL/min/kg; half-life [2, 7]: 478 ± 43.8 min; half-life ([2]; whole blood, two-compartment behaviour, read-out: Distribution half-life): 26 min; Cmax ([2]; whole blood): 3450 ± 680 nM; Tmax ([2]; whole blood): 48 ± 7.2 min; AUC0-∞ ([2]; intravenous, whole blood): 540 ± 44 µmol·min/L; Oral Cmax relative to the IC50 value [2]: ~100 fold; BA [2]: 60% and 60 ± 12%; AUC0-∞ [2, 8]: 1,150 ± 216 min∙µmol/L
